In patent US20240124454A1, “TRICYCLIC COMPOUND AND USE THEREOF” (NANJING ZAIMING PHARMACEUTICAL CO., LTD., priority 2020, published 2024):
Read-outs that look alike come from different tables or passages of the source.

Target: MAT2A (Homo sapiens (Human), UniProt P31153)
Experiment: MAT2A biochemical test (inorganic phosphate colorimetric, PiColorLock)
Conditions: read-out: MAT2A inhibitory Activity IC50
Description: Test Example 1. Biochemical Test
The brief introduction of the test principle: L-methionine and ATP can be converted into SAM, inorganic phosphate, and inorganic diphosphate under the catalysis of MAT2A enzymes. The content of inorganic phosphate in the sample can be quantitatively determined by adding a developer such as ammonium molybdate or the like to the enzymatic reaction mixture, thereby reflecting the enzymatic activity of MAT2A.
Reference: The experiment referred to the method disclosed in patent WO2018045071.
Material: MAT2A screening kits were purchased from BPS bioscience (U.S.); 384-well plates were purchased from Corning Company (U.S.). • 1. MAT2A protein (Pharmaron Beijing Co., Ltd.); • 2. L-methionine (Sigma #M9625-5G) • 3. ATP (Sigma #A7699-1G) • 4. KCl (Sigma #60142-500ML-F) • 5. Tris (Sigma #T2663-1L) • 6. MgCl2 (Sigma #M1028) • 7. EDTA (Invitrogen #AM9260G) • 8. BSA (Sangon Biotech #A500023-0100) • 9. PiColorLock (abcam #ab270004)
Detection method: In the experimental group, the test compound was dissolved in DMSO, diluted to a final concentration of 10 μM using Echo, and diluted 3-fold. 80 nL of the dilution was transferred to a 384-well plate.
The experimental buffer (50 mM Tris, 50 mM KCl, 15 mM MgCl2, 100 μM EDTA, 0.005% BSA) was prepared. The MAT2A protein was diluted with the experimental buffer (at final concentration of […]). 40 μL of 2×MAT2A solution was added to the 384-well plate. The plate was centrifuged at 1000 rpm for 1 min and incubated at room temperature for 120 min.
L-methionine and ATP (the final concentration of L-methionine was […] and the final concentration of ATP was 400 μM) were diluted with the experimental buffer. 40 μL of 2×L-methionine and ATP solution was added to initiate the reaction. The plate was centrifuged at 1000 rpm for 1 min and incubated at room temperature for 90 min.
The PiColorLock™ reaction catalyst was mixed with the PiColorLock™ buffer at a ratio of 1:100 according to the instructions. 20 μL was added to each well, and the plate was shaken for 30 s. 8 μL stabilizing reagent was added, and the plate was shaken for 30 s. The signal values were measured after 30 min of incubation at room temperature.
A negative control group and a positive control group were respectively used as Bottom and Top. The negative control group was not added with MAT2A protein, and other operations were consistent with those of the experimental group. The positive control group was not added with the test compound, only added with DMSO in the same volume, and other operations were consistent with those of the experimental group.
The % Compound inhibition was calculated and fitted to give the IC50 of the compound.
% Compound inhibition=1-100%×(Signal−Bottom)/(Top−Bottom).
Signal referred to the signal value of the experimental group, Bottom referred to the average signal value of the negative control group, and Top referred to the average signal value of the positive control group.
Under the condition of this experiment, the inhibitory effect of the test compound on MAT2A can be expressed as the IC50 of the inhibition on the phosphate production level during the enzymatic reaction.

Sequence of MAT2A (P31153 whole entry): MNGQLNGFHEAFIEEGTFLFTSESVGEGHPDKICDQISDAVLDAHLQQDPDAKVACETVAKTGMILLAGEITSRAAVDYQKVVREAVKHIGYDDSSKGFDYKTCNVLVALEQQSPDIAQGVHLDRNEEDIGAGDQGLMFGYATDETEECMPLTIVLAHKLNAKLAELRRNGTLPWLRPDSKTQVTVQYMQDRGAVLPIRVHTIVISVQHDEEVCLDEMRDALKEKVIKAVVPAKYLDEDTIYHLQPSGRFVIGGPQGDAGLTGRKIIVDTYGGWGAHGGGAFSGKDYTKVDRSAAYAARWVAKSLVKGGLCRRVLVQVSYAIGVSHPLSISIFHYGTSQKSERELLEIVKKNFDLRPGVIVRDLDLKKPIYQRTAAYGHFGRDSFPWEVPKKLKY

Compound | IC50 (class symbols) | IC50 (numeric values)
Cn1cnc2c(=O)n(-c3cccnc3C3CC3)c3cc(C(F)(F)F)ccc3c21 (atropisomer, axis not shown) [Compound 48, 5-(2-cyclopropylpyridin-3-yl)-1-methyl-7-(trifluoromethyl)-1,5-dihydro-4H-imidazo[4,5-c]quinolin-4-one] | < 100 nM | 36 nM
Cn1cnc2c(=O)n(-c3ccccc3C(F)(F)F)c3nc(C(F)(F)F)ccc3c21 (single isomer, unassigned) [Compound 57-P2, 1-methyl-7-(trifluoromethyl)-5-(2-(trifluoromethyl)phenyl)-1,5-dihydro-4H-imidazo[4,5-c][1,8]naphthyridin-4-one] | < 100 nM | 42 nM
Cn1cnc2c(=O)n(-c3ccc(OC(F)F)cc3Cl)c3nc(C(F)(F)F)ccc3c21 (single isomer, unassigned) [Compound 58-P2, 5-(2-chloro-4-(difluoromethoxy)phenyl)-1-methyl-7-(trifluoromethyl)-1,5-dihydro-4H-imidazo[4,5-c][1,8]naphthyridin-4-one] | < 100 nM | 90.8 nM
CCc1ncccc1-n1c(=O)c2ncn(C)c2c2ccc(C(F)(F)F)nc21 (single isomer, unassigned) [Compound 67-P2, 5-(2-ethylpyridin-3-yl)-1-methyl-7-(trifluoromethyl)-1,5-dihydro-4H-imidazo[4,5-c][1,8]naphthyridin-4-one] | < 100 nM | 41.4 nM
C#Cc1cccc(-n2c(=O)c3ncn(C)c3c3ccc(C(F)(F)F)nc32)c1Cl (single isomer, unassigned) [Compound 80-P2, 5-(2-chloro-3-ethynylphenyl)-1-methyl-7-(trifluoromethyl)-1,5-dihydro-4H-imidazo[4,5-c][1,8]naphthyridin-4-one] | < 100 nM | 32.5 nM
O=c1c2ncoc2c2ccc(C(F)(F)F)cc2n1-c1cccnc1C1CC1 (single isomer, unassigned) [Compound 85-P2, 5-(2-cyclopropylpyridin-3-yl)-7-(trifluoromethyl)oxazolo[4,5-c]quinolin-4(5H)-one] | < 100 nM | 33.6 nM
O=c1c2ncoc2c2ccc(C(F)(F)F)nc2n1-c1cccnc1C(F)(F)F (single isomer, unassigned) [Compound 86-P2, 7-trifluoromethyl-5-(2-trifluoromethylpyridin-3-yl)oxazolo[4,5-c][1,8]naphthyridin-4(5H)-one] | < 100 nM | 25 nM
O=c1c2ncn(C(F)F)c2c2ccc(Cl)cc2n1-c1cccnc1C1CC1 (single isomer, unassigned) [Compound 87-P2, 7-chloro-5-(2-cyclopropylpyridin-3-yl)-1-difluoromethyl-1,5-dihydro-4H-imidazo[4,5-c]quinolin-4-one] | < 100 nM | 38.7 nM
O=c1[nH]c2c(=O)n(-c3ccccc3Cl)c3nc(C(F)(F)F)ccc3c2[nH]1 [Compound 4, 5-(2-chlorophenyl)-7-(trifluoromethyl)-3,5-dihydro-1H-imidazo[4,5-c][1,8]naphthyridine-2,4-dione] | < 100 nM | 69.6 nM
O=c1c2cn[nH]c2c2ccc(C(F)(F)F)nc2n1-c1ccccc1Cl [Compound 7, 5-(2-chlorophenyl)-7-(trifluoromethyl)-1,5-dihydro-4H-pyrazolo[4,3-c][1,8]naphthyridin-4-one] | 100 to 500 nM | 128 nM
O=c1c2ncoc2c2ccc(C(F)(F)F)nc2n1-c1ccccc1Cl [Compound 8, 5-(2-chlorophenyl)-7-(trifluoromethyl)oxazolo[4,5-c][1,8]naphthyridin-4(5H)-one] | < 100 nM | 64.4 nM
CCOc1ccc2c3[nH]c(=O)[nH]c3c(=O)n(-c3ccc(OC(F)F)cc3)c2n1 [Compound 10, 5-(4-(difluoromethoxy)phenyl)-7-ethoxy-3,5-dihydro-1H-imidazo[4,5-c][1,8]naphthyridine-2,4-dione] | < 100 nM | 33 nM
